{"source": "paper PMC8876959", "about": "“Comparative Evaluation of Radiochemical and Biological Properties of ^131I- and [^99mTc]Tc(CO)3-Labeled RGD Analogues Planned to Interact with the αvβ3 Integrin Expressed in Glioblastoma” (Pharmaceuticals, 2022)", "note": "Non-standard residues stand in square brackets, D forms with d. Residues, ends and D or L forms follow the SMILES beside them. Tyr(3,5-I2) = N[C@@H](Cc1cc(I)c(O)c(I)c1)C(=O)O", "data": [{"compound": "CC(C)[C@H](NC(=O)[C@H](Cc1cc(I)c(O)c(I)c1)NC(=O)[C@H](CC(=O)O)NC(=O)CNC(=O)[C@H](CCCNC(=N)N)NC(=O)CN)C(=O)O", "note": "[[^131I]I-GRGDYV] (H-GRGD[Tyr(3,5-I2)]V-OH)", "values": [{"measurement": "Radiochemical purity in human serum up to 24 h", "value": "> 94", "unit": "%"}]}]}
